How the values were obtained:
[1] = test system: intraocular pressure associated with glaucoma; conditions: liquid eyedrops; cited from earlier work
[2] = Solubility in distilled water; assay type: physicochemical; conditions: distilled water at 25° C
Text: (§1) The product is removed from the internal mixer and passed through the cooled rolls of a 3×8 inch roller mill to form a 0.8 mm thick film, with portions of the film compression molded between heated plattens of a hydraulic press to form 0.4 mm thick film. The film is cooled, and elliptical ocular shaped devices are punched from the dry film.

[3] = Osmotic pressure of the solute (vapor pressure osmometer); assay type: physicochemical
Text: The osmotic pressure, ATM, of the solute can be measured in a commercially available osmometer that measures the vapor pressure difference between pure water and a solution containing a solute to be analyzed, and according to standard thermodynamic principles, the vapor pressure ratio is converted into an osmotic pressure. An osmometer that can be used for the present measurements is the Model 302B, Vapor Pressure Osmometer, manufactured by the Hewlett Packark Company, Avondale, Pennsylvania.
as §1

| SMILES | lowering of intraocular pressure [1] | solubility [2] | osmotic pressure [3] |
| --- | --- | --- | --- |
| CC(C)(C)NC[C@H](O)COc1nsnc1N1CCOCC1 [timolol] | lowering intraocular pressure associated with glaucoma |  |  |
| COCCc1ccc(OCC(O)CNC(C)C)cc1.O=C(O)C(O)C(O)C(=O)O (racemic) [(±)-1-[4-(2-methoxyethyl)-phenoxy]-3-[(1-methylethyl)amino]-2-propanol tartrate] |  | 860 mg/mL | 210 atm |
